Reference: patent US20090099102A1, “Ginkgolides in the Treatment and Prevention of Ovarian Cancer” (priority 2005, published 2009)
Entries after “also recorded” stand apart in the source; their conditions may differ.

What was measured:
OVCA429 cells [1] = assay: Cell proliferation (MTT) assay, serous cancer cells OVCA429; format: cell-based, human; conditions: for cell proliferation compared to the control treatments: p<0.0001; for inhibitory pattern in ovarian cancer cells (discussion): cell line not given
Protocol: (§1) Immortalized normal human ovary epithelial cell (HOSEE6E7) and a serous type ovarian cancer cell lines (OVCA433) previously established in our laboratory (Tsao, et al., Exp. Cell Res. 218:499-507 (1995); Kim, et al., Jama 287:1671-1679 (2002)) were used in this study. Two mucinous ovarian cancer cell lines (RMUG-S and RMUG-L) were purchased from The Japanese Collection of Research Bioresource (Tokyo, Japan). RMUG-L cells were cultured in MCDB105/M199 medium as above, and RMUG-S cells were cultured in F-12 medium with 10% Fetal Bovine Serum and 1% antibiotic as above. Cells were maintained at 37° C. under 5% CO2 and 95% air in a high humidity chamber. Monolayer cells at 60-80% confluence were enzymatically removed using trypsin/EDTA and plated in 96 well flat-bottomed plates at concentration of 5×10^3 per well for HOSE-E6E7 cells, 1×10^3 per well for OVCA429 and RMUG-L, respectively. Treatments were added 24 hours after plating. Ten mM stock solutions of Ginkgo biloba, quercetin, kaempferol, ginkgolide A, and ginkgolide B, were prepared in DMSO and cells were treated with 10, 50 and 100 μM concentrations of each component. Concentration of standard Ginkgo biloba treatment was calibrated according to the fact that, the standard Ginkgo biloba mixture contains about 4-6% of total active terpene lactons, and the estimated average of the molecular weight of the mixture is about 300. An equal volume of DMSO (less than <1% concentration) was used as control treatment.
(§2) Methods for the cell proliferation and viability assays were adopted from MTT (Mosmann, J. Immunol. Methods 65:55-63 (1983), XTT (Scudiero et al., Cancer Res. 48:4827-4833, (1988)) and MTS (Cory, et al., Cancer Commun. 3: 207-212 (1991)), which developed as WST-1 (Roche Applied Science, Germany). Briefly, the tetrazolium salts are cleaved to formazan by cellular enzymes. An expansion in the number of viable cells results in an increase in the overall activity of mitochondrial dehydrogenases in the sample. This augmentation in enzyme activity leads to an increase in the amount of formazan dye formed, which directly correlates with the number of metabolically active cells in the culture. After 72 hours of treatment, 15 μl of the MTT dye solution was added to each well and the plates were incubated at 37° C. for 4 hours in a humidified chamber. After incubation, 100 μl of the Solubilization/Stop solution was added to each well. One hour after the addition of the solubilization solution, the contents of the wells were mixed and read by the 96-well plate scanning spectrophotometer (μQuant) and quantitative software (KC-junior, Bio-Tek Instruments, Inc.) at an absorbance of 630 nm for quantitative analysis. Data was collected from at least 3 separate experiments, and at least 8 repeats were performed for each individual treatment. The cell proliferation rate was expressed as a percentage of the control, which had been treated with an equivalent volume of DMSO (as 100%).
Logistic regression analysis was used to calculate the exposure odds ratio to estimate the relative risk (RR) for ovarian cancer associated with the use of any or a particular type of herbal remedy. Adjustment variables included age, study center, oral contraceptive (OC) use, parity, and Jewish ethnic background. Additionally, we adjusted individually for categories of consumption of vitamin A, carotene, tomatoes and tomato sauce and juice, and raw carrots based upon previous work showing the importance of these foods and vitamins on ovarian cancer risk in our data (Cramer, et al., Int. J. Cancer 94:128-134 (2001)). For the data from the cell proliferation assay, linear regression models were applied to analyze mean OD values from the MTT assays across the different concentration treatments, adjusted for individual experiments. We used a partial F test to determine whether mean OD levels varied across the four concentrations (control, 10, 50, 100 μM). […]

HOSE-E6E7 cells [2] = assay: Cell proliferation (MTT) assay, HOSE-E6E7 cells; format: cell-based, human; conditions: 10, 50 and 100 μM (extract: equivalent of ginkgolides), 72 h
Protocol: Immortalized normal human ovary epithelial cell (HOSEE6E7) and a serous type ovarian cancer cell lines ([…]) previously established in our laboratory (Tsao, et al., Exp. Cell Res. 218:499-507 (1995); Kim, et al., Jama 287:1671-1679 (2002)) were used in this study. Two mucinous ovarian cancer cell lines (RMUG-S and RMUG-L) were purchased from The Japanese Collection of Research Bioresource (Tokyo, Japan). RMUG-L cells were cultured in MCDB105/M199 medium as above, and RMUG-S cells were cultured in F-12 medium with 10% Fetal Bovine Serum and 1% antibiotic as above. Cells were maintained at 37° C. under 5% CO2 and 95% air in a high humidity chamber. Monolayer cells at 60-80% confluence were enzymatically removed using trypsin/EDTA and plated in 96 well flat-bottomed plates at concentration of 5×10^3 per well for HOSE-E6E7 cells, 1×10^3 per well for OVCA429 and RMUG-L, respectively. Treatments were added 24 hours after plating. […]
as §2, with “After 72 hours of treatment, 15 μl of the MTT dye solution was added to each well and the plates were incubated at 37° C. for 4 hours in a humidified chamber. After incubation, 100 μl of the Solubilization/Stop solution was added to each well.” left out, “Data was collected from at least 3 separate experiments, and at least 8 repeats were performed for each individual treatment.” left out, “100%). […]” for “100%).”

RMUG-L cells [3] = assay: Cell proliferation (MTT) assay, mucinous cancer cells RMUG-L; format: cell-based, human; conditions: 10, 50 and 100 μM (extract: equivalent of ginkgolides), 72 h
Protocol: as §1, §2
Logistic regression analysis was used to calculate the exposure odds ratio to estimate the relative risk (RR) for ovarian cancer associated with the use of any or a particular type of herbal remedy. Adjustment variables included age, study center, oral contraceptive (OC) use, parity, and Jewish ethnic background. […]

OVCA429 cells [4] = assay: Cell cycle analysis (propidium iodide flow cytometry), OVCA429; format: cell-based, human; conditions: for S-phase DNA contents / G0/G1 phase DNA: OVCA429, 100 μM; for cell cycle effect: serous type cancer cells
Protocol: (§3) For the cell cycle analysis, ovarian cells were plated in 75 cm^2 flasks and treated with 100 μM of ginkgolide A and B; the control was treated with an equal amount of DMSO. After 24 and 48 hours, cells were harvested by trypsin digestion and followed by PBS washing and spun for 5 min at room temperature at 12,000 rpm. Cells were fixed with 70% ethanol (in PBS buffer) by suspending the cell pellet and incubated at room temperature for 5 minutes or at −20° C. for two days. The fixed cells were washed once with PBS and then treated with RNase A (50 ug/ml) at 37° C. for 30-60 min. After a single washing with PBS to remove RNase A, propidium iodide (25 μg/ml in PBS buffer) was added. Cells were subjected to analysis using a FACS Calibur Flow Cytometer (Becton Dickson, San Jose, Calif.). Each experiment was repeated at least three times and the cell cycle profiles and data were analyzed by ModFit LT software (Verity Software House, Inc., Topsham, Me.).

HOSE-E6E7 cells [5] = assay: Cell cycle analysis, HOSE-E6E7; format: cell-based, human; conditions: 100 μM, 24 h
Protocol: as §3

[6] = 10 young healthy volunteers; single oral dose of 80 mg Ginkgo biloba (EGb 761 formula); cited from earlier work
RMUG-L cells [7] = assay: Cell cycle analysis, RMUG-L; format: cell-based, human; conditions: 48 h
Protocol: as §3

RMUG-S cells = assay: Cell cycle analysis, RMUG-S; format: cell-based, human; conditions: after treatment
Protocol: as §3

smooth muscle cell = conditions: related to G1 to S phase blockage; cited from earlier work
[8] = 48 h, control 43% (ginkgolide B), 36.5% (ginkgolide A)
[9] = 48 h, control 47.9% (ginkgolide B), 50.7% (ginkgolide A)

| SMILES | cell proliferation compared to the control treatments (OVCA429 cells [1]; OVCA429, 50 and 100 μM, 72 h) | inhibitory pattern in ovarian cancer cells (discussion) (OVCA429 cells [1]) | effect on cell proliferation (words) (HOSE-E6E7 cells [2]) | effect on cell proliferation (words) (RMUG-L cells [3]) | effect on cell proliferation (words) (RMUG-L cells [3]; listed as Ginkgolide A) | S-phase DNA contents (OVCA429 cells [4]; [8]) [%] | G0/G1 phase DNA (OVCA429 cells [4]; [9]) [%] | cell cycle effect (OVCA429 cells [4]) | effect on DNA content of G0/G1, S and G2/M phases (HOSE-E6E7 cells [5]) | average concentration measured [6] [ng/mL] | cell proliferation compared to the control treatments (OVCA429 cells [1]; OVCA429, 10, 50 and 100 μM, 72 h) | S-phase DNA contents (OVCA429 cells [4]; 24 h, control 43%) [%] | G0/G1 phase DNA (OVCA429 cells [4]; 24 h, control 47.9%) [%] | S-phase DNA (RMUG-L cells [7]; control 28.7%) [%] | G0/G1 phase DNA (RMUG-L cells [7]; control 57%) [%] | changes in G0/G1, S-phase and M-phase DNA distribution (RMUG-S cells) | inhibition of smooth muscle cell proliferation (smooth muscle cell) | effect on cell proliferation (words) (OVCA429 cells [1]; OVCA429, 10, 50 and 100 μM (extract: equivalent of ginkgolides), 72 h) | effect on cell proliferation, exception to 'little effect' (OVCA429 cells [1]; OVCA429, 50 and 100 μM) |
| --- | --- | --- | --- | --- | --- | --- | --- | --- | --- | --- | --- | --- | --- | --- | --- | --- | --- | --- | --- |
| C[C@@H]1C(=O)O[C@H]2C[C@@]34[C@H]5C[C@@H](C(C)(C)C)[C@]36[C@@H](OC(=O)[C@@H]6O)O[C@@]4(C(=O)O5)[C@]21O [ginkgolide A] | about 60% | significant inhibitory pattern | little effect | no effect | little effect | 10.3 | 86.1 | cell cycle blockage at G0/G1 to S phase checking point | neither ginkgolide A nor ginkgolide B (100 μM) showed a significant effect | 15 | – | – | – | – | – | – | – | – | – |
| CC1C(=O)OC2C(O)C34C5CC(C(C)(C)C)C36C(OC(=O)C6O)OC4(C(=O)O5)C12O (stereo not shown) [ginkgolide B] | – | significant inhibitory pattern | little effect | little effect; also recorded: no effect | – | 24 | 65.1 | cell cycle blockage at G0/G1 to S phase checking point | neither ginkgolide A nor ginkgolide B (100 μM) showed a significant effect | 4 | about 60% | 35.8 | 51.5 | 40.9 | 44 | no observed changes | inhibit smooth muscle cell proliferation in a concentration dependent manner | – | – |
| O=c1c(O)c(-c2ccc(O)cc2)oc2cc(O)cc(O)c12 [kaempferol, reference compound] | – | – | – | little effect | – | – | – | – | – | – | – | – | – | – | – | – | – | little effect | – |
| O=c1c(O)c(-c2ccc(O)c(O)c2)oc2cc(O)cc(O)c12 [quercetin, reference compound] | – | significant inhibitory pattern | little effect | little effect | – | – | – | – | – | – | – | – | – | – | – | – | – | – | OVCA429 with 50 and 100 μM quercetin |
